Data from patent US10500197B2, “Use of oligopyridylamides to inhibit mutant p53 amyloid formation and restore its tumor suppressor function” (New York University, priority 2017, dated 2019).
“Also recorded” adds a separate entry of the source.

Experiments:
[1] = target: T1, E6-p53 interaction (Homo sapiens, UniProt P04637); conditions: HeLa cells, previously described; cited from earlier work
T1 construct: host or cells: HeLa

[2] = tested on: MIA PaCa-2 cells (R248W p53 mutant); test: MTS cell viability assay in MIA PaCa-2 cells; format: cell-based; conditions: 5 and 10 μM, 24 and 48 hours, serum-free media
Procedure: MIA PaCa-2 (CRL-1420) cells, which contain the R248W p53 contact mutant, were obtained from ATCC and cultured in ATCC-formulated Dulbecco's Modified Eagle's Medium supplemented with 10% fetal bovine serum (FBS), 2.5% horse serum, 4% 200 mM L-glutamine and 1% penicillin/streptomycin. A separate stock of serum-free medium was kept for cell viability assays. Cells were split at a 1:3 ratio 2-3 times a week and maintained at 80% confluence and >85% viability. Viability was regularly measured through Trypan Blue dilution correction during cell counting. Cell cultures were stored at 37° C. in T75 coated flasks and kept under 5% CO2.
MTS assays were performed with Promega CellTiter One MTS solution according to protocol. MIA PaCa-2 Cells were seeded at 2,000 cells/well and were incubated for 24 hours to allow proper adherence to the well. On treatment day, wells were washed with warm PBS and media was replaced with a serum-free version. If treatment peptides were purified from crude form, they were also filtered using a 0.2 µm filter before introduction to cells. On MTS reading day, media was changed again (serum-free) and 20 μL of MTS was added to each 100 μL well. Cells were incubated at 37° C. for 2 hours before reading absorbance at 490 nm using Synergy H1 (BioTek) equipped with Gen5 software.
(§1) MTS assays were performed with Promega CellTiter One MTS solution according to protocol. MIA PaCa-2 cells were seeded at 2,000 cells/well, MCF-7 at 4,000 cells/well, COS-7 at 5,000 cells/well and HeLa at 3,000 cells/well. These values were individually optimized for the assay prior to experimentation. All cells were incubated for 24 hours to allow proper adherence to the well. On treatment day, wells were washed with warm PBS and media was replaced with a serum-free version. If treatment peptides were purified from crude form, they were also filtered using a 0.2 µm filter before introduction to cells. On MTS reading day, media was changed again (serum-free) and 20 μL of MTS was added to each 100 μL well. Cells were incubated at 37° C. for 2 hours before reading absorbance at 490 nm using Synergy H1 (BioTek) equipped with Gen5 software. Background absorbance from control wells was quantified and subtracted from obtained experimental absorbance values.
The two classes of designed peptide inhibitors have been introduced to a cancer cell-line that harbors the R248W p53 mutant, MIA PaCa-29. It has been hypothesized that upon co-localization of the inhibitors with mutant p53, mutant p53 aggregates will be abrogated, resulting in the release of wild-type p53 from cellular inclusions and, eventually, the induction of apoptosis. The 4 designed peptides were introduced to MIA PaCa-2 cells at 5 and 10 μM for 24 and 48 hour incubation periods. MTS assay was used to assess cell viability after treatment, whereby the bio-reduction of the MTS tetrazolium compound results in detectable color change that is proportional to the number of viable cells left in a sample (see Example 1).
MIA PaCa-2 cells were incubated with ADH compounds 17, 27, 31, 37, 39, 40, 41, 45, 46, and 52 (5 and 10 μM) for 24 and 48 hours. Cell viability was determined using the MTS assay.

[3] = target: T2, Aβ (Homo sapiens, UniProt P05067); conditions: shown in U.S. 2018/0170910; cited from earlier work
T2 construct: amyloid formation in Amyloid-β (Aβ)
T2 sequence (P05067 672-713 limits assumed): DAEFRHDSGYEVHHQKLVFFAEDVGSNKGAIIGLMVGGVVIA

[4] = tested on: HeLa cells; test: MTS cell viability in HeLa cells; format: cell-based; conditions: 5 or 10 μM, 24 hours, serum-free media
Procedure: as §1
It has been hypothesized that the ADH compounds may bind to wild-type p53 in a manner that preserves its main function, yet disrupts other protein-protein interactions in the cellular environment. HeLa cells are known to have very low p53 expression levels, which is attributed to the expression of the HPV-E6 protein. E6 proteins target p53 for proteasomal degradation via the ubiquitin pathway by binding to p53's core domain (residues 94-292) and C-terminus. Because it has been hypothesized that the effective ADH compounds (40, 41, and 46) target the p53 DNA-binding domain located in its core region, the compounds may prevent E6 binding, leading to p53 accumulation and eventually apoptosis. […] Since ReACp53 is a sequence-specific peptide that targets the p53 DNA-binding domain, it may also prevent E6 binding through a similar mechanism.

[5] = tested on: MCF-7 cells (wild-type p53); test: MTS cell viability in MCF-7 cells; format: cell-based; conditions: 5 and 10 μM, 24 hours, serum-free media
Procedure: as §1
(§2) It has been shown that the ADH compounds have no toxic effect on N2a cells, which carry wild-type p53. Their effect on other wild-type p53 cell lines: MCF-7 and COS-7 was further investigated. Cells were incubated with ADH compounds 17, 27, 40, 41 and 46 for 24 hours at 5 and 10 μM in serum-free media before determining cell viability via MTS (FIG. 2).

[6] = target: R248W mutant p53 peptide aggregates (Homo sapiens, UniProt P04637, R248W); test: Multi-step ThT assay, abrogation of pre-formed R248W aggregates; format: biochemical; conditions: 50 μM R248W incubated 35 minutes at 37° C., then equimolar ADH compound
Procedure: (§3) This fluorescence can be monitored overtime to estimate the increase in beta-sheet structure of incubated peptides, indicating amyloid formation. […] 50 μM ThT was incubated at 37° C. with varying concentrations of peptides and inhibitors to estimate both the aggregation propensity of mutant peptides and the abrogation of aggregation brought about by inhibitor treatment. All samples were sonicated, including the ThT solution, prior to each addition of peptides to ensure the obtainment of clear sigmoidal curves. Fluorescence in transparent-bottom 96-well sample plates was monitored by the cell plate reader Synergy H1 (BioTek).
Accordingly, a multi-step ThT assay was designed that would evaluate the ability of an inhibitor to abrogate aggregation at different stages of amyloid formation. Based on the sigmoidal curve produced in ThT assays of the R248W peptide, 3 time points were selected to introduce the inhibitor to mutant p53 aggregates. The first would occur at 0 mins, where no R248W aggregates would have been previously formed. The second time point would be approximately 30 mins after aggregation begins, during the exponential increase in fluorescence of the R248W ThT sigmoidal curve. The last time point would be during the plateau phase of the curve at approximately 5 hours after initiation of the assay, whereby aggregates reach an equilibrium phase and stabilize in solution.
In order to target p53 aggregation in the cellular environment, the ADH compounds according to the invention would need to bind and abrogate pre-formed p53 aggregates, as well as prevent additional aggregation. Inhibition of pre-formed aggregates would be a crucial feature of therapeutics that successfully target mutant p53 aggregation in cancer. Using the multi-step thioflavin T assay, where the inhibitor is added to R248W at either elongation or the plateau phases of amyloid formation, 50 μM of the R248W peptide was incubated at 37° C. for 35 minutes before adding an equimolar ratio of the ADH compound (FIG. 1).

[7] = tested on: COS-7 cells (wild-type p53); test: MTS cell viability in COS-7 cells; format: cell-based; conditions: 5 and 10 μM, 24 hours, serum-free media
Procedure: as §1, §2

[8] = tested on: MIA PaCa-2 cells; test: Annexin/PI FACS apoptosis assay; format: cell-based, human; conditions: 24 hour incubation; preliminary data
Procedure: Cells were seeded in 12 wells plates (20,000 cells/mL) and were left to adhere over 24 hours. Media was switched to a serum-free version on treatment day. On analysis day, cells were washed, harvested and washed again through centrifugation before resuspension in Annexin-binding buffer. 4 μL Annexin-FITC and 1 μL of a 100 ng/mL PI working solution was added to 100-200 μL samples. Cells were incubated for 15 minutes at room temperature in the dark and 400 uL of Annexin-binding buffer was added to the samples. Samples were then immediately transferred to ice before FACS analysis. FACS was performed using a BD FACS ARIA III machine.
It has been hypothesized that the cell death observed upon treatment of these inhibitors is brought about by p53-mediated apoptosis. Inhibitors rescue p53 function from mutant-initiated sequestration and allow the cell to undergo normal apoptosis. […] This assay allows the detection of cell populations undergoing apoptosis through fluorescent annexin labeling of phosphatidylserine (PS), a phospholipid that becomes exposed on the outer membrane of a mammalian cell undergoing apoptosis. A second fluorescent label, Propidium Iodide (PI) stains DNA in dead cells, allowing for the differentiation between apoptotic and necrotic cells.

[9] = target: R248W mutant p53 peptide (Homo sapiens, UniProt P04637, R248W); test: Thioflavin T (ThT) assay, inhibition of R248W peptide aggregation; format: biochemical; conditions: 1:1 ratio to R248W peptide, 37° C., 10 hours
Procedure: as §3
To test the inhibition efficacy of these peptides, they were subjected to a ThT assay whereby a fixed concentration of R248W was treated with varying concentrations of the respective inhibitor peptide in the presence of ThT dye and buffer. […] It is hypothesized that this effect is due to the relative hydrophobicity of the PAS sequence (FFLIPKG) (FIG. 4B).
10 compounds based on the oligopyridylamide molecular scaffolds have been tested on mutant p53 aggregation models. A ThT assay was used to test the inhibition capability of each compound at a 1:1 ratio to the R248W mutant peptide.

Row | Compound | binding to wild-type p53 and blocking of E6 interaction [1] | effect of ADH compounds on MIA PaCa-2 cell viability (MTS) [2] | inhibition of Aβ aggregation / amyloid formation [3] | toxicity in HeLa cells (MTS) [4] | toxicity in MCF-7 cells (MTS) [5] | abrogation of R248W aggregates at the elongation phase [6] | toxicity in COS-7 cells (MTS) [7] | induction of apoptosis (Annexin/PI FACS) [8] | inhibition of R248W mutant p53 aggregation by ADH compounds (ThT fluorescence) [9]
1 | OCc1ccc(-c2ccc(-c3ccc(CO)s3)o2)s1 [RITA, 2,5-bis-(5-hydroxymethyl-2-thienyl) furan] | binds to wild-type p53 and prevents its interaction with E6 | – | – | – | – | – | – | – | –
2 | COC(=O)c1ccc(NC(=O)c2ccc(NC(=O)c3ccc([N+](=O)[O-])c(OCc4ccccc4)n3)c(OCCCN)n2)c(OCCCN)n1 [ADH-41] | – | highly significant toxicity; also recorded: extremely significant effect on cell viability | most effective inhibitor; also recorded: wholly suppressing Aβ amyloid formation | Significant toxicity; also recorded: significantly toxic | No significant toxicity; also recorded: do not induce significant toxicity | abrogate aggregation at the elongation phase; also recorded: able to target and abrogate aggregates at the elongation phase | No significant toxicity; also recorded: do not induce significant toxicity | Induces Apoptosis | most effective inhibitor of R248W aggregation; also recorded: inhibit mutant p53 aggregation with varying levels of effectiveness; also recorded: most potent inhibitor of mutant p53 aggregation
